The target in data set [1] is T1, GIST430/654 cell line expressing mutated constitutively active cKIT receptor tyrosine kinase (Δ560-576 deletion and V654A point mutation) (Homo sapiens, UniProt P10721, DEL560-576/V654A).
T1 construct: endogenous in cells; host or cells: GIST430/654 cells
The data set can be described thus: Cellular cKIT autophosphorylation (phospho-Y307-cKIT, Luminex bead assay) in GIST430/654 cells. It is filed as cell-based. Conditions: compounds 45 min, read-out: GIST 430/654 IC50. The procedure, abridged:
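GIST430 (Δ560-576) and imatinib-resistant GIST430/654 (plus V654A; grown with 100 nM imatinib) cells were plated in IMDM/15% FCS and treated next day with serially diluted compound for 45 min. Lysates were captured on anti-total-cKIT Luminex beads overnight at 4 °C and probed for phospho-Y307. IC50 was taken from percent of 0.3% DMSO control.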

Data set [2] can be described thus: Determination of Efflux-Ratio (ER) in Caco-2 cells. Conditions: human, Caco-2, pH 7.4. For orientation: Caco-2 monolayers are a common model of the intestinal barrier.
Experimental: Determination of Efflux-Ratio (ER) in Caco-2 Cells
The efflux ratio of the test compounds was determined in Caco-2 human epithelial colorectal adenocarcinoma cell line (TC7 clone) using calculation of apparent permeability (Papp). Cell monolayers were differentiated in vitro for 14 days before the experiment. Subsequently, the test compound (in HBSS pH 7.4 at 1 μM final concentration) was applied on the donor side while HBSS buffer (pH 7.4) was added to the receiver wells. […] The plate was then incubated in a 5% CO2 incubator (37° C., 100% humidity). At the end of the 2 hours incubation period, 50 μL sample was removed from both donor and receiver wells and diluted 1:1 with equal volumes of acetonitrile for LC-MS/MS analysis. The LC-MS/MS analysis used a one-point calibration method from a 1 μM standard solution diluted 1:1 with equal volume of acetonitrile (consistent to the test samples).
The data was used to calculate the apparent permeabilities of the compounds in both apical to basolateral (Papp,AB) and basolateral to apical (Papp,BA) directions at 1 μM concentration in duplicate. The Papp values were calculated from the concentrations in the donor and receiver compartments using the following formula:
Efflux ratio was calculated according to the following formula:
Another data set concerns the target T2, c-Kit(V654A) (Homo sapiens, UniProt P10721, V654A).
T2 construct: recombinant human c-Kit, amino acids 544-end containing the V654A mutation; GST (N)
Kind of data set: c-Kit(V654A) assay (33P-ATP filter binding kinase assay). Format: biochemical. The note with it: recombinant human c-Kit aa 544-end V654A, ATP 200 μM. Summed up: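 Radiometric filter-binding read-out: substrate 33P incorporation counted by scintillation after P30 filtermat washes in 75 mM phosphoric acid and methanol. Enzyme: N-GST recombinant human c-Kit aa 544-end carrying V654A.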

Broadly, the efflux ratio is a quotient of directional permeabilities that is used to spot active efflux.

T1 sequence (P10721 with tags, fused parts or gaps DEL560-576/V654A): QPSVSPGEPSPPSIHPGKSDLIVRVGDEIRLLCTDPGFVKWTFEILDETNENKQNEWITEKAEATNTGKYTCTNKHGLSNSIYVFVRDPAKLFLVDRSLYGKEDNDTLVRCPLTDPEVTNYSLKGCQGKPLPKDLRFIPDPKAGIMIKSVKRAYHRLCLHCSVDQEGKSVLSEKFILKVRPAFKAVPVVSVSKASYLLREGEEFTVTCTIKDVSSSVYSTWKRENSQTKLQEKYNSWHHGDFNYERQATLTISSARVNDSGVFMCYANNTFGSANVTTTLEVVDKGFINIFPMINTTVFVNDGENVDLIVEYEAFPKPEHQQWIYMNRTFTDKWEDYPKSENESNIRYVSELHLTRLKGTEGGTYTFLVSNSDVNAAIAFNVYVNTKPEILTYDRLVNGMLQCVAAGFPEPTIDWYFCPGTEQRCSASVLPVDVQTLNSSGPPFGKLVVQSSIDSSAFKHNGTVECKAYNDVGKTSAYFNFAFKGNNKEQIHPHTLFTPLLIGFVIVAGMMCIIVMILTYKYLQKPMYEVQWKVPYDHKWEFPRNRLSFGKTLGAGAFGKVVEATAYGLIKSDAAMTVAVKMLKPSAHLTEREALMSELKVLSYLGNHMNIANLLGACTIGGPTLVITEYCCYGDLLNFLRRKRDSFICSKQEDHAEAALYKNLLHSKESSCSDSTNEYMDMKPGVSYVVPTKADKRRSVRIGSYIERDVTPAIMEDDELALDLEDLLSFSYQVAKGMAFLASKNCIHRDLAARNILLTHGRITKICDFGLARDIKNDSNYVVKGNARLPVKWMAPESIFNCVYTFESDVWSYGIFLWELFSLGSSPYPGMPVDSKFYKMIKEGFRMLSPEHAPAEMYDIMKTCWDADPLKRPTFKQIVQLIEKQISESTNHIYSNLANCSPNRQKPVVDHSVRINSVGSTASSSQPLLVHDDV
T2 sequence (P10721 544-976 V654A): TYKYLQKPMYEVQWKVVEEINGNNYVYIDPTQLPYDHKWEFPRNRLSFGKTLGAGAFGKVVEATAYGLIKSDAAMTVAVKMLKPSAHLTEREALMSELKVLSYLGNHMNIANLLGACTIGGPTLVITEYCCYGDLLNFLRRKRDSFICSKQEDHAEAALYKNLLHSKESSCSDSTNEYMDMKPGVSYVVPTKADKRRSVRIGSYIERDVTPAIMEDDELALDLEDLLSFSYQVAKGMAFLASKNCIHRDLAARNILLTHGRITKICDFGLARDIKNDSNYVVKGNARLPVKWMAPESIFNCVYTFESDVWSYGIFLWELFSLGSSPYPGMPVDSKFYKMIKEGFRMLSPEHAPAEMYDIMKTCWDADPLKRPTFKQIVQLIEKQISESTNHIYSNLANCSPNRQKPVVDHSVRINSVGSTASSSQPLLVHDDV

For the compound `Cn1cc(-c2ccc(CNc3cc(-c4cnc5cc(OCCN6CC[S+]([O-])CC6)ccn45)ncn3)cc2)cn1` [A194, [4-(1-methyl-1H-pyrazol-4-yl)-benzyl]-(6-{7-[2-(1-oxo-1|4-thiomorpholin-4-yl)-ethoxy]-imidazo[1,2-a]pyridin-3-yl}-pyrimidin-4-yl)-amine], the IC50 was 92 nM in data set [1] and 6.1 nM on c-Kit(V654A). Besides, in data set [2], the efflux ratio at 2 h, 1 μM was over 50.

On to `COCCn1ncc(-c2ccc(CNc3cc(-c4cnc5cc(OC)ccn45)ncn3)cc2)n1` [A46, N-({4-[2-(2-methoxyethyl)-2H-1,2,3-triazol-4-yl]phenyl}methyl)-6-{7-methoxyimidazo[1,2-a]pyridin-3-yl}pyrimidin-4-amine], for which the IC50 in data set [1] was 95 nM; on c-Kit(V654A), 6.4 nM. Further, the efflux ratio at 2 h, 1 μM in data set [2] was under 15.

`Cn1cc(-c2ccc(CNc3cc(-c4cnc5cc(OCCN6CCN7CCOCC7C6)ccn45)ncn3)cc2)cn1` (stereo not drawn) [A201, (6-{7-[2-(hexahydro-pyrazino[2,1-c][1,4]oxazin-8-yl)-ethoxy]-imidazo[1,2-a]pyridin-3-yl}-pyrimidin-4-yl)-[4-(1-methyl-1H-pyrazol-4-yl)-benzyl]-amine]: the values for the IC50 (in data set [1]; at c-Kit(V654A)) were 99 nM and 13 nM, respectively. The efflux ratio at 2 h, 1 μM in data set [2] was under 15.

For `Cn1cc(-c2ccc(CNc3cc(-c4cnc5cc(OCCn6cccn6)ccn45)ncn3)cc2)cn1` [A255, N-{[4-(1-methyl-1H-pyrazol-4-yl)phenyl]methyl}-6-{7-[2-(1H-pyrazol-1-yl)ethoxy]imidazo[1,2-a]pyridin-3-yl}pyrimidin-4-amine], the IC50 worked out at 100 nM in data set [1] and 15 nM at c-Kit(V654A). In data set [2], the efflux ratio at 2 h, 1 μM was under 15.

Take `COCCOc1ccn2c(-c3cc(NCc4ccc(-c5cnn6c5CCC6)cc4)ncn3)cnc2c1` [A17, 6-[7-(2-methoxyethoxy)imidazo[1,2-a]pyridin-3-yl]-N-[(4-{4H,5H,6H-pyrrolo[1,2-b]pyrazol-3-yl}phenyl)methyl]pyrimidin-4-amine]: the values for the IC50 (in data set [1]; on c-Kit(V654A)) were 110 nM and 9.7 nM, respectively. In addition, the efflux ratio at 2 h, 1 μM in data set [2] was under 15.

`Cn1cc(-c2ccc(CNc3cc(-c4cnc5cc(OCCC6(N)COC6)ccn45)ncn3)cc2)cn1` [A233]: the results for the IC50 (in data set [1]; on c-Kit(V654A)) were 130 nM and 8.7 nM, respectively. The efflux ratio at 2 h, 1 μM in data set [2] is over 50.

For `Cn1cc(-c2ccc(CNc3cc(-c4cnc5cc(OCC6CNC6)ccn45)ncn3)cc2)cn1` [A167, 6-{7-[(azetidin-3-yl)methoxy]imidazo[1,2-a]pyridin-3-yl}-N-{[4-(1-methyl-1H-pyrazol-4-yl)phenyl]methyl}pyrimidin-4-amine], the results for the IC50 (in data set [1]; at c-Kit(V654A)) were 500 nM and 7.5 nM, respectively. Moreover, in data set [2], the efflux ratio at 2 h, 1 μM was over 50.

For `Cc1nc(-c2ccc(CNc3cc(-c4cnc5cc(OCCO)ccn45)ncn3)cc2)co1` [A236, 2-(3-{6-[4-(2-methyl-oxazol-4-yl)-benzylamino]-pyrimidin-4-yl}-imidazo[1,2-a]pyridin-7-yloxy)-ethanol], the IC50 came out at 74 nM in data set [1] and 1.5 nM on c-Kit(V654A). The efflux ratio at 2 h, 1 μM in data set [2] is under 15.

In the case of `Cn1cc(-c2ccc(CNc3cc(-c4cnc5cc(OCCN6CCO[C@@H]7COCC[C@@H]76)ccn45)ncn3)cc2)cn1` [A211, (6-{7-[(4aS,8aS)-2-(hexahydro-pyrano[3,4-b][1,4]oxazin-1-yl)-ethoxy]-imidazo[1,2-a]pyridin-3-yl}-pyrimidin-4-yl)-[4-(1-methyl-1H-pyrazol-4-yl)-benzyl]-amine], the IC50 stood at 85 nM in data set [1] and 10 nM at c-Kit(V654A). In data set [2], the efflux ratio at 2 h, 1 μM was under 15.

As to `Cn1ncc(-c2ccc(CNc3cc(-c4cnc5cc(OCC6CCNCC6)ccn45)ncn3)cc2)n1` [A165], the results for the IC50 (in data set [1]; on c-Kit(V654A)) were 57 nM and 2 nM, respectively. For the same compound, the efflux ratio at 2 h, 1 μM in data set [2] is over 50.

With `Cn1cc(-c2ccc(CNc3cc(-c4cnc5cc(OCC6CCNCC6)ccn45)ncn3)cc2)cn1` [A166, [4-(1-methyl-1H-pyrazol-4-yl)-benzyl]-{6-[7-(piperidin-4-ylmethoxy)-imidazo[1,2-a]pyridin-3-yl]-pyrimidin-4-yl}-amine], the IC50 is 120 nM in data set [1] and 4 nM on c-Kit(V654A). Moreover, the efflux ratio at 2 h, 1 μM in data set [2] was over 50.

On to `Cn1ncc(-c2ccc(CNc3cc(-c4cnc5cc(OCCCS(C)(=O)=O)ccn45)ncn3)cc2)n1` [A231, {6-[7-(3-methanesulfonyl-propoxy)-imidazo[1,2-a]pyridin-3-yl]-pyrimidin-4-yl}-[4-(2-methyl-2H-[1,2,3]triazol-4-yl)-benzyl]-amine], for which the figures for the IC50 (in data set [1]; on c-Kit(V654A)) were 250 nM and 15 nM, respectively. Moreover, in data set [2], the efflux ratio at 2 h, 1 μM fell in the range of 15 to 50.

On to `Cn1ncc(-c2ccc(CNc3cc(-c4cnc5cc(OCCC6CCNC6)ccn45)ncn3)cc2)n1` (stereo not drawn) [A176, [4-(2-methyl-2H-[1,2,3]triazol-4-yl)-benzyl]-{6-[7-(2-pyrrolidin-3-yl-ethoxy)-imidazo[1,2-a]pyridin-3-yl]-pyrimidin-4-yl}-amine], for which the figures for the IC50 (in data set [1]; on c-Kit(V654A)) were 84 nM and 3.2 nM, respectively. Further, the efflux ratio at 2 h, 1 μM in data set [2] was over 50.

As to `Cn1cc(-c2ccc(CNc3cc(-c4cnc5cc(N6CCN(C7COC7)CC6)ccn45)ncn3)cc2)cn1` [A230, [4-(1-methyl-1H-pyrazol-4-yl)-benzyl]-{6-[7-(4-oxetan-3-yl-piperazin-1-yl)-imidazo[1,2-a]pyridin-3-yl]-pyrimidin-4-yl}-amine], the IC50 in data set [1] is 63 nM; on c-Kit(V654A) it was 24 nM. Further, the efflux ratio at 2 h, 1 μM in data set [2] is under 15.

On to `Cn1cc(-c2ccc(CNc3cc(-c4cnc5cc(OCCS(C)(=O)=O)ccn45)ncn3)cc2)cn1` [A224, {6-[7-(2-methanesulfonyl-ethoxy)-imidazo[1,2-a]pyridin-3-yl]-pyrimidin-4-yl}-[4-(1-methyl-1H-pyrazol-4-yl)-benzyl]-amine], for which the IC50 came out at 99 nM in data set [1] and 6.5 nM on c-Kit(V654A). The efflux ratio at 2 h, 1 μM in data set [2] was 15 to 50.

For the compound `Cn1cc(-c2ccc(CNc3cc(-c4cnc5cc(OCC(C)(C)O)ccn45)ncn3)cc2)cn1` [A64, 2-methyl-1-(3-{6-[4-(1-methyl-1H-pyrazol-4-yl)-benzylamino]-pyrimidin-4-yl}-imidazo[1,2-a]pyridin-7-yloxy)-propan-2-ol], the IC50 was 84 nM in data set [1] and 6.7 nM at c-Kit(V654A). In addition, in data set [2], the efflux ratio at 2 h, 1 μM was under 15.

As for `CN1CCN(CCOc2ccn3c(-c4cc(NCc5ccc(-n6ccnn6)cc5)ncn4)cnc3c2)CC1` [A67, (6-{7-[2-(4-methyl-piperazin-1-yl)-ethoxy]-imidazo[1,2-a]pyridin-3-yl}-pyrimidin-4-yl)-(4-[1,2,3]triazol-1-yl-benzyl)-amine], the IC50 amounted to 65 nM in data set [1] and 4.8 nM at c-Kit(V654A). The efflux ratio at 2 h, 1 μM in data set [2] was over 50.

For `Cn1ncc(-c2ccc(CNc3cc(-c4cnc5cc(N6CCC(CCO)C6)ccn45)ncn3)cc2)n1` (stereo not drawn) [A179, 2-[1-(3-{6-[4-(2-methyl-2H-[1,2,3]triazol-4-yl)-benzylamino]-pyrimidin-4-yl}-imidazo[1,2-a]pyridin-7-yl)-pyrrolidin-3-yl]-ethanol], the values for the IC50 (in data set [1]; on c-Kit(V654A)) were 24 nM and 3.1 nM, respectively. Moreover, the efflux ratio at 2 h, 1 μM in data set [2] is over 50.

With `CC(Nc1cc(-c2cnc3cc(OCCCN4CCCC4)ccn23)ncn1)c1ccc(-c2cnn(C)c2)cc1` (stereo not drawn) [A250, {1-[4-(1-methyl-1H-pyrazol-4-yl)-phenyl]-ethyl}-{6-[7-(3-pyrrolidin-1-yl-propoxy)-imidazo[1,2-a]pyridin-3-yl]-pyrimidin-4-yl}-amine], the IC50 in data set [1] was 410 nM; on c-Kit(V654A), 110 nM. Besides, in data set [2], the efflux ratio at 2 h, 1 μM was over 50.

Turning to `Cn1cc(-c2ccc(CNc3cc(-c4cnc5cc(OCCN6CC7CC6C[S+]7[O-])ccn45)ncn3)cc2)cn1` (stereo not drawn) [A199, [4-(1-methyl-1H-pyrazol-4-yl)-benzyl]-(6-{7-[2-(2-oxo-2|4-thia-5-aza-bicyclo[2.2.1]hept-5-yl)-ethoxy]-imidazo[1,2-a]pyridin-3-yl}-pyrimidin-4-yl)-amine], the IC50 stood at 100 nM in data set [1] and 9.7 nM on c-Kit(V654A). The efflux ratio at 2 h, 1 μM in data set [2] is over 50.

For the compound `Cn1cc(-c2ccc(CNc3cc(-c4cnc5cc(OCCN6CC7(COC7)C6)ccn45)ncn3)cc2)cn1` [A114, [4-(1-methyl-1H-pyrazol-4-yl)-benzyl]-(6-{7-[2-(2-oxa-6-aza-spiro[3.3]hept-6-yl)-ethoxy]-imidazo[1,2-a]pyridin-3-yl}-pyrimidin-4-yl)-amine], the IC50 in data set [1] is 86 nM; at c-Kit(V654A) it was 9.4 nM. Further, the efflux ratio at 2 h, 1 μM in data set [2] fell in the range of 15 to 50.

For `Cn1cc(-c2ccc(CNc3cc(-c4cnc5cc(OCCN6CC(C)(C#N)C6)ccn45)ncn3)cc2)cn1` [A206], the IC50 was determined as 100 nM in data set [1] and 7.1 nM on c-Kit(V654A). For the same compound, the efflux ratio at 2 h, 1 μM in data set [2] is under 15.

As to `Cn1cc(-c2ccc(CNc3cc(-c4cnc5cc(OCC(C)(C)CN6CCCC6)ccn45)ncn3)cc2)cn1` [A91, {6-[7-(2,2-dimethyl-3-pyrrolidin-1-yl-propoxy)-imidazo[1,2-a]pyridin-3-yl]-pyrimidin-4-yl}-[4-(1-methyl-1H-pyrazol-4-yl)-benzyl]-amine], the IC50 was found to be 76 nM in data set [1] and 8.6 nM on c-Kit(V654A). The efflux ratio at 2 h, 1 μM in data set [2] was under 15.

These data come from patent US12655142B2 (Merck Patent GmbH, priority 2019, dated 2026).
